Target: Prostate-specific antigen (KLK3) (Homo sapiens) (UniProt P07288)
Test: Inhibition of Prostate specific antigen PSA (Serine Protease)

Sequence of Prostate-specific antigen (KLK3) (Homo sapiens) (P07288 whole entry, looked up): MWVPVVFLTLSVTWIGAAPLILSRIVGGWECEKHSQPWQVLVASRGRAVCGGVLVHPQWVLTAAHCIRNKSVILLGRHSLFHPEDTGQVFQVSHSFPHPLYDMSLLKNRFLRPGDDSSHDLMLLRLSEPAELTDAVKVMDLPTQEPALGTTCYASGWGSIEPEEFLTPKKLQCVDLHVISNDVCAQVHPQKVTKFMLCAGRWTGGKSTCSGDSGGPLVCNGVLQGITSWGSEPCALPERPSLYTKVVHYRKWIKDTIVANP

Row | IC50 [µM] | SMILES
1 | 0.226 | O=C(OCc1ccccc1)c1cccc(CC(=O)N2C(=O)[C@@H](Cc3ccc(O)cc3)[C@H]2C(=O)OCc2ccccc2)c1 (stereo in doubt; (3S,4S)-18)
2 | 5.84 | O=C(O)c1ccc(COC(=O)c2cccc(CC(=O)N3C(=O)[C@@H](Cc4ccccc4)[C@H]3C(=O)OCc3ccc(C(=O)O)cc3)c2)cc1
3 | 1.43 | O=C(OCc1ccccc1)c1cccc(CC(=O)N2C(=O)[C@@H](Cc3ccccc3)[C@H]2C(=O)OCc2ccccc2)c1
4 | 8.98 | O=C(O)c1ccc(COC(=O)[C@@H]2[C@H](Cc3ccccc3)C(=O)N2C(=O)Cc2cccc(C(=O)OCc3ccccc3)c2)cc1
5 | 0.348 | O=C(OCc1ccccc1)c1cccc(CC(=O)N2C(=O)[C@@H](Cc3ccc(O)cc3)[C@H]2C(=O)OCc2ccccc2)c1 (stereo in doubt; 16)
6 | 3.5 | O=C(O)c1ccc(COC(=O)[C@@H]2[C@H](Cc3ccc(O)cc3)C(=O)N2C(=O)Cc2cccc(C(=O)OCc3ccccc3)c2)cc1

Source: ChEMBL document CHEMBL1134448, “Design, synthesis, and proposed active site binding analysis of monocyclic 2-azetidinone inhibitors of prostate specific antigen” (J Med Chem, 2001)
